Experimental data: ChEMBL document CHEMBL3758173, “Identification of β-Amino alcohol grafted 1,4,5 trisubstituted 1,2,3-triazoles as potent antimalarial agents” (Eur J Med Chem, 2016)
Activity calls are given as the source filed them. The rule behind the calls is not given here.

Tests used:
[1] = Selectivity index, ratio of CC50 for monkey kidney VERO cells to IC50 for chloroquine resistant Plasmodium falciparum K1 infected in human erythrocytes; type: functional
[2] = Selectivity index, ratio of CC50 for monkey kidney VERO cells to IC50 for chloroquine sensitive Plasmodium falciparum 3D7 infected in human erythrocytes; type: functional
Plasmodium falciparum [3] = experiment: Antiplasmodial activity against chloroquine resistant Plasmodium falciparum K1 infected in human erythrocytes incubated for 72 hrs by SYBR Green1-based fluorescence analysis; type: functional, organism-based; conditions: K1, 72 h
[4] = Resistance index, ratio of IC50 for chloroquine resistant Plasmodium falciparum K1 infected in human erythrocytes to IC50 for chloroquine sensitive Plasmodium falciparum 3D7 infected in human erythrocytes; type: functional
Plasmodium falciparum [5] = experiment: Antiplasmodial activity against chloroquine sensitive Plasmodium falciparum 3D7 infected in human erythrocytes incubated for 72 hrs by SYBR Green1-based fluorescence analysis; type: functional, organism-based; conditions: 3D7, 72 h
[6] = Cytotoxicity against monkey kidney Vero cells by resazurin assay; type: cell-based; conditions: chlorocebus sabaeus
[7] = tested on: Plasmodium yoelii nigeriensis; experiment: Antiplasmodial activity against multidrug-resistant Plasmodium yoelii nigeriensis infected in Swiss mouse assessed as suppression of parasitaemia at 100 mg/kg, po for 4 days by Geimsa-staining based analysis; type: functional; conditions: 96 h
Mus musculus = experiment: Toxicity in multidrug-resistant Plasmodium yoelii nigeriensis infected Swiss mouse assessed as mouse survival at 100 mg/kg/day, po for 4 days; type: organism-based; conditions: in vivo, 96 h
MCF7 [8] = experiment: Induction of p53 protein expression in human MCF7 cells at antiplasmodial IC50 after 36 hrs by luciferase reporter assay relative to control; type: functional
Rattus norvegicus [9] = experiment: AUC(last) in Sprague-Dawley rat at 100 mg/kg, po after 0 to 48 hrs by LC-MS/MS analysis; type: ADME, organism-based; parameters: dose 100 mg/kg, time 0 - last, route oral; conditions: in vivo
MCF7 [10] = experiment: Induction of p53 protein expression in human MCF7 cells at antiplasmodial IC50 after 36 hrs by luciferase reporter assay relative to control relative to doxorubicin; type: functional
[11] = Tmax in Sprague-Dawley rat at 100 mg/kg, po after 0 to 48 hrs by LC-MS/MS analysis; type: ADME, organism-based; conditions: in vivo
[12] = Mean residence time(last) in Sprague-Dawley rat at 100 mg/kg, po after 0 to 48 hrs by LC-MS/MS analysis; type: ADME, organism-based; conditions: in vivo
MCF7 [13] = experiment: Upregulation of p53 level in human MCF7 cells at antiplasmodial IC50 after 48 hrs by immnublotting method; type: functional, cell-based; conditions: TDE = time-dependent effect
[14] = Cmax in Sprague-Dawley rat at 100 mg/kg, po after 0 to 48 hrs by LC-MS/MS analysis; type: ADME, organism-based; parameters: dose 100 mg/kg, route oral; conditions: in vivo
Rattus norvegicus [15] = experiment: Apparent oral volume of distribution in Sprague-Dawley rat at 100 mg/kg, po after 0 to 48 hrs by LC-MS/MS analysis; type: ADME, organism-based; conditions: in vivo
[16] = Apparent oral clearance in Sprague-Dawley rat at 100 mg/kg, po after 0 to 48 hrs by LC-MS/MS analysis; type: ADME, organism-based; conditions: in vivo

Row | SMILES | Ratio CC50/IC50 [1] | Ratio CC50/IC50 [2] | IC50 (Plasmodium falciparum [3]) [nM] | Ratio IC50 [4] | IC50 (Plasmodium falciparum [5]) [nM] | CC50 [6] [nM] | inhibition in vivo at 100 mg/kg [7] [%] | Activity (Mus musculus) | Activity (MCF7 [8]) | AUClast (Rattus norvegicus [9]) [ng·h/mL] | fold change (FC) (MCF7 [10]) | Tmax [11] [h] | MRT last [12] [h] | Activity (MCF7 [13]) | Cmax [14] [ng/mL] | fold change (FC) (MCF7 [8]) | Vd/F (Rattus norvegicus [15]) [L/kg] | CL/F [16] [mL/min/kg]
1 | CC(C)c1ccc(-c2c(C(O)(CNc3ccc(F)cc3)c3ccc(Cl)cc3)nnn2Cc2ccccc2)cc1 (stereo not given) | >299.4 | >316.45 | 1670 | 1.05 | 1580 | > 500000 |  |  |  |  |  |  |  |  |  |  |  | 
2 | OC(CNc1ccc(Br)cc1)(c1ccc(Cl)cc1)c1nnn(Cc2ccccc2)c1-c1ccc(Cl)cc1 (stereo not given) | >354.6 | >314.4 | 1410 | 0.88 | 1590 | > 500000 |  |  |  |  |  |  |  |  |  |  |  | 
3 | OC(CNc1ccc(Br)cc1)(c1ccc(Cl)cc1)c1nnn(Cc2ccccc2)c1-c1ccccc1 (stereo not given) | >267.37 | >256.41 | 1870 | 0.95 | 1950 | > 500000 |  |  |  |  |  |  |  |  |  |  |  | 
4 | OC(CNc1ccc(F)cc1)(c1ccc(Br)cc1)c1nnn(Cc2ccccc2)c1-c1ccccc1 (stereo not given) | >108.9 | >184.5 | 4590 | 1.69 | 2710 | > 500000 |  |  |  |  |  |  |  |  |  |  |  | 
5 | Cc1ccc(C(O)(CNc2ccc(C)c(C)c2)c2nnn(Cc3ccccc3)c2-c2ccc(Cl)cc2)cc1 (stereo not given) | >185.87 | >280.89 | 2690 | 1.51 | 1780 | > 500000 |  |  |  |  |  |  |  |  |  |  |  | 
6 | CCN(CC)CCCC(C)Nc1ccnc2cc(Cl)ccc12 (stereo not given) [CHLOROQUINE PHOSPHATE] |  |  |  |  |  | > 500000 |  |  |  |  |  |  |  |  |  |  |  | 
7 | OC(CNc1ccc(F)cc1)(c1ccc(Cl)cc1)c1nnn(Cc2ccccc2)c1-c1ccc(Br)cc1 (stereo not given) | >154.79 | >155.76 | 3230 | 1 | 3210 | > 500000 |  |  |  |  |  |  |  |  |  |  |  | 
8 | COc1cc(NCC(O)(c2ccc(Cl)cc2)c2nnn(Cc3ccccc3)c2-c2ccc(Cl)cc2)ccc1Br (stereo not given) | >326.29 | >303.3 | 1530 | 0.92 | 1650 | > 500000 |  |  |  |  |  |  |  |  |  |  |  | 
9 | OC(CNc1ccc(Br)cc1)(c1ccc(Cl)cc1)c1nnn(Cc2ccccc2)c1-c1ccc(F)cc1 (stereo not given) | >248.75 | >454.54 | 2010 | 1.82 | 1100 | > 500000 | 64.6 | Non-toxic | Active |  |  |  |  |  |  |  |  | 
10 | CC(C)c1ccc(-c2c(C(O)(CNc3ccc(Br)cc3)c3ccc(Cl)cc3)nnn2Cc2ccccc2)cc1 (stereo not given) | 73.26 | 515.3 | 2110 | >7.03 | 300 | 155000 | 86.8 | Non-toxic |  | 1590 | 10 | 4 | 15 | tde | 212 | 20 | 1837.17 | 741
11 | OC(CNc1ccc(F)c(F)c1)(c1ccc(Cl)cc1)c1nnn(Cc2ccccc2)c1-c1ccc(Cl)cc1 (stereo not given) | >1000 | >232.55 | 500 | 0.23 | 2150 | > 500000 | 89.9 | Non-toxic |  |  |  |  |  |  |  |  |  | 
12 | OC(CNc1ccc(Br)cc1)(c1ccc(Br)cc1)c1nnn(Cc2ccccc2)c1-c1ccccc1 (stereo not given) | >1000 | >303.03 | 500 | 0.3 | 1650 | > 500000 | 16.8 | Non-toxic | Active |  |  |  |  | tde |  |  |  | 
13 | OC(CNc1cccc2ccccc12)(c1ccc(Cl)cc1)c1nnn(Cc2ccccc2)c1-c1ccc(Cl)cc1 (stereo not given) | 235.39 | 217.59 | 1230 | 0.92 | 1330 | 290000 |  |  | Active |  |  |  |  | tde |  |  |  | 
14 | OC(CNc1ccc2c(c1)OCO2)(c1ccc(Cl)cc1)c1nnn(Cc2ccccc2)c1-c1ccc(Cl)cc1 (stereo not given) | >195.3 | >183.1 | 2560 | 0.93 | 2730 | > 500000 |  |  |  |  |  |  |  |  |  |  |  | 
15 | OC(CNc1ccccc1Br)(c1ccc(Cl)cc1)c1nnn(Cc2ccccc2)c1-c1ccc(Br)cc1 (stereo not given) | >58.07 | >43.21 | 8610 | 0.74 | 11600 | > 500000 |  |  |  |  |  |  |  |  |  |  |  | 
16 | OC(CNc1ccc(I)cc1)(c1ccc(Cl)cc1)c1nnn(Cc2ccccc2)c1-c1ccc(Cl)cc1 (stereo not given) | >340.1 | >337.83 | 1470 | 0.99 | 1480 | > 500000 |  |  |  |  |  |  |  |  |  |  |  | 
17 | OC(CNc1ccc(F)cc1)(c1ccc(Cl)cc1)c1nnn(Cc2ccccc2)c1-c1ccccc1 (stereo not given) | >140.05 | >151.05 | 3570 | 1.07 | 3310 | > 500000 |  |  |  |  |  |  |  |  |  |  |  | 
18 | OC(CNc1ccc(Cl)cc1)(c1ccc(Cl)cc1)c1nnn(Cc2ccccc2)c1-c1ccc(F)cc1 (stereo not given) | >242.71 | >175.43 | 2060 | 0.72 | 2850 | > 500000 |  |  |  |  |  |  |  |  |  |  |  | 
19 | OC(CNc1ccc(Br)cc1)(c1ccc(Cl)cc1)c1nnn(Cc2ccc(Br)cc2)c1-c1ccc(Cl)cc1 (stereo not given) | >297.61 | >206.61 | 1680 | 0.69 | 2420 | > 500000 |  |  |  |  |  |  |  |  |  |  |  | 
20 | Cc1ccc(NCC(O)(c2ccc(Br)cc2)c2nnn(Cc3ccccc3)c2-c2ccccc2)cc1C (stereo not given) | >143.6 | >183.8 | 3480 | 1.27 | 2720 | > 500000 |  |  |  |  |  |  |  |  |  |  |  | 
21 | OC(CNc1ccc(Br)cc1)(c1ccc(Cl)cc1)c1nnn(Cc2ccccc2)c1-c1ccc(Br)cc1 (stereo not given) | >233.64 | >574.71 | 2040 | 2.45 | 870 | > 500000 | 27.2 | Non-toxic |  |  |  |  |  |  |  |  |  | 
22 | Cc1ccc(NCC(O)(c2ccc(Cl)cc2)c2nnn(Cc3ccccc3)c2-c2ccc(F)cc2)cc1C (stereo not given) | >178.57 | >187.26 | 2800 | 1.04 | 2670 | > 500000 |  |  |  |  |  |  |  |  |  |  |  | 
23 | OC(CNc1ccc(F)cc1)(c1ccc(Cl)cc1)c1nnn(Cc2ccccc2)c1-c1ccc(F)cc1 (stereo not given) | >151.97 | >129.19 | 3290 | 0.85 | 3870 | > 500000 |  |  |  |  |  |  |  |  |  |  |  | 
24 | Cc1ccc(NCC(O)(c2ccc(Cl)cc2)c2nnn(Cc3ccccc3)c2-c2ccccc2)cc1C (stereo not given) | >185.18 | >193.79 | 2700 | 1.04 | 2580 | > 500000 |  |  |  |  |  |  |  |  |  |  |  | 
25 | Cc1ccc(NCC(O)(c2ccc(Cl)cc2)c2nnn(Cc3ccccc3)c2-c2ccc(Cl)cc2)cc1C (stereo not given) | 195.31 | 183.15 | 3180 | 1.41 | 2240 | > 500000 |  |  |  |  |  |  |  |  |  |  |  | 
26 | OC(CNc1ccccc1Br)(c1ccc(Cl)cc1)c1nnn(Cc2ccccc2)c1-c1ccc(F)cc1 (stereo not given) | >59.1 | >55 | 8460 | 0.93 | 9090 | > 500000 |  |  |  |  |  |  |  |  |  |  |  | 
